Columns and labels:
[1] = molecular target: T1, serotonin receptor 5-HT2C (Homo sapiens, UniProt P28335); test: CEREP 5-HT2C (h) (agonist radioligand); type: binding; settings: BT13 1 μM, Cat. No. 1003, average of duplicate, read-out: Percentage of inhibition/potentiation from control
T1 construct: purchased CEREP (contract assay) 0137, 1003
T1 sequence (P28335 33-458): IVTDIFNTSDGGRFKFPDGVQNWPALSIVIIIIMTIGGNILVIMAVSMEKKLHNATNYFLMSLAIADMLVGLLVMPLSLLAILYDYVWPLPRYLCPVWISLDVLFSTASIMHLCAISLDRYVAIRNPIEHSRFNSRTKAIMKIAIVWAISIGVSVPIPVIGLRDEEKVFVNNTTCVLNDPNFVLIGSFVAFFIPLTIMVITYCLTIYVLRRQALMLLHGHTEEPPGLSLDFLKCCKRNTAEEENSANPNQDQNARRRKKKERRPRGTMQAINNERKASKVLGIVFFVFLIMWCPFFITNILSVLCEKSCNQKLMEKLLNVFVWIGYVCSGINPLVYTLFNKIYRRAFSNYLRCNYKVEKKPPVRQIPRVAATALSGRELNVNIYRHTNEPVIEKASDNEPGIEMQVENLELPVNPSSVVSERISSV

[2] = tested on: Akt and Erk phosphorylation in MG87TrkB; test: Erk1/2 and Akt phosphorylation assay in MG87TrkB cells; type: cell-based, murine; settings: BT13 10–100 μM, BDNF positive control
Method: MG87RET, MG87TrkA, or MG87TrkB were plated on 35 mm tissue culture dishes 1–2 days before the experiment to achieve 90–95% of confluency of the cells at the day of stimulation with tested substances. If necessary, cells were transfected with 4 μg/well of GFRα1-, GFRα3-, or green fluorescent protein (GFP)-expressing plasmid using Lipofectamine 2000 (Invitrogen) for DNA delivery as described by manufacturer. Before the experiment cells were starved in serum-free DMEM containing 15 mM HEPES, pH 7.2 and 1% DMSO for 4 h and stimulated with BT13 or neurotrophic factors. Then cells were washed once with ice-cold PBS containing 1 mM Na3VO4 and 1 mM NaF and lysed on ice in 1 ml per well of RIPA-modified buffer (50 mM Tris-HCl, pH 7.4, 150 mM NaCl, 1 mM EDTA, 1% NP-40, 1% TX-100, 10% glycerol, EDTA-free protease inhibitor cocktail (Roche), 1 mM Na3VO4, 2.5 mg/ml of sodium deoxycholate, 1 mM NaF). Plates were incubated at +4°C on the horizontal shaker for 30 min with vigorous shaking. Afterwards, 80–100 μl aliquot was taken from each well to prepare whole cell lysates. This aliquot was mixed with equal volume of 2x Laemmli loading buffer (4% SDS, 20% glycerol, 10% 2-mercaptoethanol, 0.004% bromphenol blue, 0.125 M Tris HCl, pH 6.8) and boiled for 10 min at 100°C. Remaining cell lysates were used for immunoprecipitation of RET or Trk receptors. […]

[3] = molecular target: T1, serotonin receptor 5-HT2C; test: CEREP 5-HT2C (h) (antagonist radioligand); type: binding; settings: BT13 1 μM, Cat. No. 0137, average of duplicate, read-out: Percentage of inhibition/potentiation from control
[4] = tested on: rats with spinal nerve ligation (L5/L6); test: Spinal nerve ligation (Chung's) model of experimental neuropathy, von Frey test; settings: for increase of ipsilateral paw withdrawal threshold (PWT): von Frey, day 12 post-surgery
rats = test: Tolerability: weight gain, toxic signs, pathological analysis of major organs; type: in vivo, rat
CYP2D6 = molecular target: T2, CYP2D6 (Homo sapiens, UniProt P10635); test: CYP inhibition, fluorescent assay; type: biochemical; settings: read-out: Inhibition of CYP isoforms (IC50), CYP2D6
T2 construct: Cyathus Exquirere (contract laboratory)
T2 sequence (P10635 whole entry, canonical isoform): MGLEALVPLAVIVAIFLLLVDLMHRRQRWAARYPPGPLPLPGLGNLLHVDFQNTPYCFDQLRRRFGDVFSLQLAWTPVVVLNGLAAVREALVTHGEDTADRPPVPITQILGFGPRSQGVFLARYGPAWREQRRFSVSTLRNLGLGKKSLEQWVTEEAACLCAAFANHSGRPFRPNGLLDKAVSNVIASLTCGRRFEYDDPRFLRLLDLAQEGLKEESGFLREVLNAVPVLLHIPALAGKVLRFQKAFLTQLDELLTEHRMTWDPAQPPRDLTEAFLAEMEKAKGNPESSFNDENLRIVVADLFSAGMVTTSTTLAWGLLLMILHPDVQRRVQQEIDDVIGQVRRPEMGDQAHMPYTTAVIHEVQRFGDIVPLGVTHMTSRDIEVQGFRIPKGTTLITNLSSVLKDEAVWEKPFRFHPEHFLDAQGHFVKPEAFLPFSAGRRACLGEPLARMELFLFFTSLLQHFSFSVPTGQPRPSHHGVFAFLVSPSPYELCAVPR

adenosine receptor A1 = adenosine receptor A1 (Homo sapiens, UniProt P30542); test: CEREP A1 (h) (antagonist radioligand); type: binding; settings: BT13 1 μM; Cat. No. 0002; average of duplicate; read-out: Percentage of inhibition/potentiation from control
Sequence of adenosine receptor A1 (P30542 whole entry, canonical isoform): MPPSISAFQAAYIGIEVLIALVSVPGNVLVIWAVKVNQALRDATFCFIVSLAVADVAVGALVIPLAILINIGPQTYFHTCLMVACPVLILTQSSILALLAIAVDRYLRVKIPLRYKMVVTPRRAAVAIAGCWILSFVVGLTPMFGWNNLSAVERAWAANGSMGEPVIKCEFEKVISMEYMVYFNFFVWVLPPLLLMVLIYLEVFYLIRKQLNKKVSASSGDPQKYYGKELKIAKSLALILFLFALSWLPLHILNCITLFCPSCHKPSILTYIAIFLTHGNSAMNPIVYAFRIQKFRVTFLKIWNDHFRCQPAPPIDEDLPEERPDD

CYP1A2 = CYP1A2 (Homo sapiens, UniProt P05177); test: CYP inhibition, fluorescent assay; type: biochemical; settings: read-out: Inhibition of CYP isoforms (IC50), CYP1A2
Sequence of CYP1A2 (P05177 whole entry, canonical isoform): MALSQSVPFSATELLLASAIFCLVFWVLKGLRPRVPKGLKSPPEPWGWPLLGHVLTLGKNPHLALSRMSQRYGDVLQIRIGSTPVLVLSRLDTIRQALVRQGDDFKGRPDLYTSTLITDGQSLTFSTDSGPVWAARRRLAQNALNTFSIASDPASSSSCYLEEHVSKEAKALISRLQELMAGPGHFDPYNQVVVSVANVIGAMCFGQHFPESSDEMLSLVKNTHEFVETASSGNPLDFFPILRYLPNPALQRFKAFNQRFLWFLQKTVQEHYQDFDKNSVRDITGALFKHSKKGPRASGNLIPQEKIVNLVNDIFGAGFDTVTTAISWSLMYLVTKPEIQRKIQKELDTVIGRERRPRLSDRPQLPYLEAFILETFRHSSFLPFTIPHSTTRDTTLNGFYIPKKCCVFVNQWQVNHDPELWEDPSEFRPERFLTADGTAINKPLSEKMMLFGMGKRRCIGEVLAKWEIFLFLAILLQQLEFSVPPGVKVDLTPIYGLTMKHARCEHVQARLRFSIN

GFRα1/RET = molecular target: T3, GFRα1/RET (Homo sapiens, UniProt P07949); test: Luciferase reporter-gene assay (PathDetect Elk-1), GFRα1/RET reporter cells; type: cell-based; settings: GFRα1/RET reporter cell line
T3 construct: full-length human RET (long isoform) in pCR3.1; expressed in transfected cells; host or cells: MG87 murine fibroblasts (MG87RET + PathDetect Elk-1 + GFRα1)
T3 sequence (P07949 29-1114): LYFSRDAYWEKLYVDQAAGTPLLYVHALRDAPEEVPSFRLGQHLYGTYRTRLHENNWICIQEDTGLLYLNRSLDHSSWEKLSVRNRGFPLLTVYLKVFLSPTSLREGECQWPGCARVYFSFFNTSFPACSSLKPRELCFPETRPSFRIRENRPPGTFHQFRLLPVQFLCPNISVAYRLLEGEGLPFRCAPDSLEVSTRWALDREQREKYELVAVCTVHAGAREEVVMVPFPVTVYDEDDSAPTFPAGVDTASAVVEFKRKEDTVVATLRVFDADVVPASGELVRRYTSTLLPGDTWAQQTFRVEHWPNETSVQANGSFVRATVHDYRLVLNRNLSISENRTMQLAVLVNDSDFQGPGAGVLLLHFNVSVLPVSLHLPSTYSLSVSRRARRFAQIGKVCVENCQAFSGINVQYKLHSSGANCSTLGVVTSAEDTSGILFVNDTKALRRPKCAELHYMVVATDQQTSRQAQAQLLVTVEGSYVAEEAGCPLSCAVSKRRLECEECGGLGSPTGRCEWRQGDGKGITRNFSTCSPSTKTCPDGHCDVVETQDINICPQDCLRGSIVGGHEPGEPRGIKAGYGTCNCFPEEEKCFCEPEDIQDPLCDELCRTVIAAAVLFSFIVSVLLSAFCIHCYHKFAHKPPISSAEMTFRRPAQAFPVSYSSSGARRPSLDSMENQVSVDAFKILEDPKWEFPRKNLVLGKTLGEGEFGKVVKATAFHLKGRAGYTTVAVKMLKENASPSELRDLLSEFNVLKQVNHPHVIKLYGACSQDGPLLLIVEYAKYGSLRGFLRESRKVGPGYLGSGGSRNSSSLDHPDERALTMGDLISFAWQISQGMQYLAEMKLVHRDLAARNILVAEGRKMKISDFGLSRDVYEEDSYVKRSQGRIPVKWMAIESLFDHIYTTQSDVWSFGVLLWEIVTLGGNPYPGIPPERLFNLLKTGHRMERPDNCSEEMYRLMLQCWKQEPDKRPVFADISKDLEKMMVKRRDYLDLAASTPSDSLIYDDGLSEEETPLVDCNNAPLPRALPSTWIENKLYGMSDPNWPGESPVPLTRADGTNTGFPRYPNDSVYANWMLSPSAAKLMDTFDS

5-HT transporter = 5-HT transporter (Homo sapiens, UniProt P31645); test: biochemical; settings: read-out: Percentage of inhibition/potentiation from control
Sequence of 5-HT transporter (P31645 whole entry): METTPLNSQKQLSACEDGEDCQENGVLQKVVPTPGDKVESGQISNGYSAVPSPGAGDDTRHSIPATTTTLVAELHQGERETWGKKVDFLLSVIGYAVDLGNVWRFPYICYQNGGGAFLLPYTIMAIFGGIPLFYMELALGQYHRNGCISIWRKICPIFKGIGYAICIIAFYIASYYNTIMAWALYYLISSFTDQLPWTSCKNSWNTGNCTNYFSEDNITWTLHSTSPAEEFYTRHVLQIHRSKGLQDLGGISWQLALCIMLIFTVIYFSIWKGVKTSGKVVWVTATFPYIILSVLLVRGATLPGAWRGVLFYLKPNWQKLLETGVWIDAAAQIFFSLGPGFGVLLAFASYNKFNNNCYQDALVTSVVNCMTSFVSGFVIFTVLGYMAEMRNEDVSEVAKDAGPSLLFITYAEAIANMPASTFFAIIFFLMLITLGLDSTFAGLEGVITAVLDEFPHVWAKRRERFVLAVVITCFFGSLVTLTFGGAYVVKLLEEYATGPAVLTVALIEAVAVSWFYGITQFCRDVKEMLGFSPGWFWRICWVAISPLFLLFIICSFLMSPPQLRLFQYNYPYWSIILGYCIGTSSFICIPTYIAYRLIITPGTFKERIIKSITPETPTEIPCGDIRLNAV

[5] = molecular target: T4, opioid receptor kappa (KOP) (Rattus norvegicus, UniProt P34975); test: CEREP Kappa (KOP) (agonist radioligand); type: binding; settings: BT13 1 μM; Cat. No. 1971; average of duplicate; read-out: Percentage of inhibition/potentiation from control
T4 construct: purchased CEREP (contract assay) 1971
T4 sequence (P34975 whole entry): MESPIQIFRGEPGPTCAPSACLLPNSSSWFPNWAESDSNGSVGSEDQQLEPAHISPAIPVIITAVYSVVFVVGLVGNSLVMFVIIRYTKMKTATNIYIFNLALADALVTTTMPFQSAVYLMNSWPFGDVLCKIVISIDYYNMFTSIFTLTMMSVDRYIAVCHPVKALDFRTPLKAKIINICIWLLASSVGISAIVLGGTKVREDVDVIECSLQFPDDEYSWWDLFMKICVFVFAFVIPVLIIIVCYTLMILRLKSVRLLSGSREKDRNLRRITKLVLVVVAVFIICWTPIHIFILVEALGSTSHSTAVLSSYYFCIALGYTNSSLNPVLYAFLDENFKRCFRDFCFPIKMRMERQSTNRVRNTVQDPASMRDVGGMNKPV

## CCN(CC)S(=O)(=O)c1ccc(OC)c(N2CCN(C(=O)c3ccc(F)cc3C(F)(F)F)CC2)c1 [BT13]
[1]
  inhibition at 1 µM: 6%
[2]
  Akt and Erk phosphorylation: no Akt or Erk phosphorylation was observed
[3]
  inhibition at 1 µM: 11%
[4]; BT13 20 mg/kg s.c. on days 1, 3, 5, 8, 10, 12
  increase of ipsilateral paw withdrawal threshold (PWT): 2.5 times
[4]; BT13 25 mg/kg s.c. on days 1, 3, 5, 8, 10, 12
  increase of ipsilateral paw withdrawal threshold (PWT): 2.9 times
[4]; repeated post-surgical s.c. administration of BT13
  effect on contralateral PWTs: did not influence
rats; after completion of behavioral experiments
  significant histopathological changes in major organs: not detected
rats; experimental animals treated with BT13
  acute toxic effects, signs of pain or discomfort: No acute toxic effects, signs of pain or obvious discomfort
rats; rat, in vivo
  tumor formation in the tissues of rats: no tumor formation
CYP2D6
  IC50: > 100 µM
Adenosine receptor A1
  inhibition at 1 µM: 5%
CYP1A2
  IC50: > 100 µM
GFRα1/RET
  efficacy, fold induction of luciferase above baseline: 11.6 fold
GFRα1/RET; 0.1–50 μM, read-out: EC50, luciferase activation
  EC50: 17.4 µM
5-HT transporter
  inhibition at 1 µM: 0%
[5]
  inhibition at 1 µM: 0%

— publication PMC5478727, “A Novel Small Molecule GDNF Receptor RET Agonist, BT13, Promotes Neurite Growth from Sensory Neurons in Vitro and Attenuates Experimental Neuropathy in the Rat” (Frontiers in Pharmacology, 2017)
